The test deals with human eosinophils. Description: Ionomycin-induced IL-8 secretion in human eosinophils (ELISA). The class given is cell-based. The following applies: Eosinophil, compound 45 min before ionomycin, supernatant after 18 h, read-out: IC50, IL-8 release induced by ionomycin in eosinophils. The procedure:
After 18 h stimulation at 37° C. in a 5% CO2 atmosphere, Interleukin-8 (IL-8) was measured in supernatants obtained from […] with a commercial ELISA kit from R&D Systems. The threshold sensitivity was 5 pg/ml and the inter- and intra-assay variations were less than 5%. The supernatants obtained from HMC-1 cells were aliquoted in duplicates for interleukin-6 (IL-6), IL-8, chemokine (C-C motif) ligand 5 (CCL5)/regulated upon activation, normal T-cell expressed and secreted (RANTES) and tumor necrosis factor-α (TNF-α) analysis using a high-throughput multiplex Luminex technology (Luminex 200 System; Luminex, Austin, Tx, USA) and Beadview software version 1.0 (Upstate Cell Signaling Solutions, Temecula, Calif.). Standard curves for known concentrations of recombinant human cytokines were used to convert median fluorescence intensities to cytokine concentrations in pg/ml. Only the linear portions of the standard curves were used to quantify cytokine concentrations, and in instances where the fluorescence reading exceeded the linear range of the standard curve, an appropriate dilution was performed to ensure that the concentration was in the linear portion of the curve.
(ELISA stands for enzyme-linked immunosorbent assay.)

Drawing on patent US20110104159A1, “COMPOSITIONS AND METHODS FOR TREATING, CONTROLLING, REDUCING, AMELIORATING, OR PREVENTING ALLERGY” (priority 2006, published 2011), this text covers IC50 for one molecule.

Molecules are shown by their SMILES.

Usually IC50 stands for the midpoint of a concentration-inhibition curve. Regarding `Cc1ccc2c(NC[C@](O)(CC(C)(C)c3cc(F)cc4c3OCC4)C(F)(F)F)cccc2n1` [BOL-303242-X, (R)-1,1,1-Trifluoro-4-(5-fluoro-2,3-dihydrobenzofuran-7-yl)-4-methyl-2-{[(2-methyl-5-quinolyl)amino]methyl}pentan-2-ol], the IC50 is 10.7 nM.
